Results published in patent publication US8759361B2, “2-phenoxy pyrimidinone analogues” (Neurogen Corporation, priority 2006, dated 2014).

Molecular target: T1, human capsaicin receptor (Homo sapiens, UniProt Q8NER1)
T1 construct: expressed in transfected cells
Assay: Calcium mobilization assay, determination of antagonist activity (Example 6)
Type: cell-based
Conditions: cells expressing human capsaicin receptor, capsaicin-induced fluorescence response; read-out: IC50
Protocol: A cDNA encoding full length human capsaicin receptor (SEQ ID NO:1, 2 or 3 of U.S. Pat. No. 6,482,611) is subcloned in the plasmid pBK-CMV (Stratagene, La Jolla, Calif.) for recombinant expression in mammalian cells.
Human embryonic kidney (HEK293) cells are transfected with the pBK-CMV expression construct encoding the full length human capsaicin receptor using standard methods. The transfected cells are selected for two weeks in media containing G418 (400 μg/ml) to obtain a pool of stably transfected cells. Independent clones are isolated from this pool by limiting dilution to obtain clonal stable cell lines for use in subsequent experiments.
Cells transfected with expression plasmids (as described in Example 4) and thereby expressing human capsaicin receptor are seeded and grown to 70-90% confluency in FALCON black-walled, clear-bottomed 96-well plates (#3904, BECTON-DICKINSON, Franklin Lakes, N.J.). The culture medium is emptied from the 96 well plates and FLUO-3 AM calcium sensitive dye (Molecular Probes, Eugene, Oreg.) is added to each well (dye solution: 1 mg FLUO-3 AM, 440 μL DMSO and 440 μl 20% pluronic acid in DMSO, diluted 1:250 in Krebs-Ringer HEPES (KRH) buffer (25 mM HEPES, 5 mM KCl, 0.96 mM NaH2PO4, 1 mM MgSO4, 2 mM CaCl2, 5 mM glucose, 1 mM probenecid, pH 7.4), 50 μl diluted solution per well). Plates are covered with aluminum foil and incubated at 37° C. for 1-2 hours in an environment containing 5% CO2. After the incubation, the dye is emptied from the plates, and the cells are washed once with KRH buffer, and resuspended in KRH buffer.
To measure the ability of a test compound to agonize or antagonize a calcium mobilization response in cells expressing capsaicin receptors to capsaicin or other vanilloid agonist, the EC50 of the agonist capsaicin is first determined. An additional 20 μl of KRH buffer and 1 μl DMSO is added to each well of cells, prepared as described above. 100 μl capsaicin in KRH buffer is automatically transferred by the FLIPR instrument to each well. Capsaicin-induced calcium mobilization is monitored using either FLUOROSKAN ASCENT (Labsystems; Franklin, Mass.) or FLIPR (fluorometric imaging plate reader system; Molecular Devices, Sunnyvale, Calif.) instruments. Data obtained between 30 and 60 seconds after agonist application are used to generate an 8-point concentration response curve, with final capsaicin concentrations of 1 nM to 3 μM. KALEIDAGRAPH software (Synergy Software, Reading, Pa.) is used to fit the data to the equation: y=a*(1/(1+(b/x)^c)) to determine the 50% excitatory concentration (EC50) for the response. In this equation, y is the maximum fluorescence signal, x is the concentration of the agonist or antagonist (in this case, capsaicin), a is the Emax, b corresponds to the EC50 value and c is the Hill coefficient. Determination of Agonist Activity
Test compounds are dissolved in DMSO, diluted in 20 μl KRH buffer so that the final concentration of test compounds in the assay well is between 1 μM and 5 μM, and added to cells prepared as described above. The 96 well plates containing prepared cells and test compounds are incubated in the dark, at room temperature for 0.5 to 6 hours. It is important that the incubation not continue beyond 6 hours. Just prior to determining the fluorescence response, 100 μl capsaicin in KRH buffer at twice the EC50 concentration determined as described above is automatically added by the FLIPR instrument to each well of the 96 well plate for a final sample volume of 200 μl and a final capsaicin concentration equal to the EC50. The final concentration of test compounds in the assay wells is between 1 μM and 5 μM. […] The concentration of antagonist required to provide a 50% decrease, relative to the response observed in the presence of capsaicin and without antagonist, is the IC50 for the antagonist, and is preferably below 1 micromolar, 100 nanomolar, 10 nanomolar or 1 nanomolar.

T1 sequence (Q8NER1 whole entry): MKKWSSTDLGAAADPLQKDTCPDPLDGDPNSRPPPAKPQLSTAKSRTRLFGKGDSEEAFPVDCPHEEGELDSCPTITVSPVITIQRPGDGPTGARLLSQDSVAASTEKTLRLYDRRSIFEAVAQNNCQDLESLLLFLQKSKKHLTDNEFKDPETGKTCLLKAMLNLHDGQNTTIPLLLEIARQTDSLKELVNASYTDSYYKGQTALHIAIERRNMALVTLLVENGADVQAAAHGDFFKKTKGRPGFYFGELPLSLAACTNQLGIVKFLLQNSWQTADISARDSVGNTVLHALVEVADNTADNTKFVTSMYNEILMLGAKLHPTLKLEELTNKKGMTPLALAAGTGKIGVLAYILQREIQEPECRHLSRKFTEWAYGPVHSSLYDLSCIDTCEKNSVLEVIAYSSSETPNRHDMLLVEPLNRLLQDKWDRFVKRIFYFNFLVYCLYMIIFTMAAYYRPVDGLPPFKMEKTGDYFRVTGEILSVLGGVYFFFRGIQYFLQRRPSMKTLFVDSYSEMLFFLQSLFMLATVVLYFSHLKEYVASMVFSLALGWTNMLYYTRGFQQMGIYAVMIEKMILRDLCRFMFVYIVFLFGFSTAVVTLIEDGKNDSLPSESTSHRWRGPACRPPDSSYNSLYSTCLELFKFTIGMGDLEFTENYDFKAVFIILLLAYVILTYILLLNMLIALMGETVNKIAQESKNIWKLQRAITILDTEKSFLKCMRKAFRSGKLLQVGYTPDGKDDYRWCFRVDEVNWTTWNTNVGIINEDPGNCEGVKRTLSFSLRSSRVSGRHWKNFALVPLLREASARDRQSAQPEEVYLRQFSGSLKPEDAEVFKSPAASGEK

IC50, ≤ 100 nM:
Cn1cnc2c(=O)n(-c3ccc(Cl)cc3)c(Oc3c(F)cc(F)cc3F)nc21 [Compound 8, 1-(4-chlorophenyl)-9-methyl-2-(2,4,6-trifluorophenoxy)-1,9-dihydro-6H-purin-6-one]
CCn1cnc2c(=O)n(-c3ccc(F)cc3)c(Oc3c(F)cc(F)cc3F)nc21 [Compound 9, 9-ethyl-1-(4-fluorophenyl)-2-(2,4,6-trifluorophenoxy)-1,9-dihydro-6H-purin-6-one]
Cn1cnc2c(=O)n(-c3ccc(Cl)cc3)c(Oc3ccc(F)c(F)c3F)nc21 [Compound 10, 1-(4-chlorophenyl)-9-methyl-2-(2,3,4-trifluorophenoxy)-1,9-dihydro-6H-purin-6-one]
CCn1cnc2c(=O)n(-c3ccc(F)cc3)c(Oc3ccc(F)c(F)c3F)nc21 [Compound 11, 9-ethyl-1-(4-fluorophenyl)-2-(2,3,4-trifluorophenoxy)-1,9-dihydro-6H-purin-6-one]
Cn1cnc2c(=O)n(-c3ccc(F)cc3)c(Oc3c(F)cc(F)cc3F)nc21 [Compound 12, 1-(4-fluorophenyl)-9-methyl-2-(2,4,6-trifluorophenoxy)-1,9-dihydro-6H-purin-6-one]
Cn1cnc2c(=O)n(-c3ccc(F)cc3)c(Oc3cc(F)cc(F)c3F)nc21 [Compound 20, 1-(4-fluorophenyl)-9-methyl-2-(2,3,5-trifluorophenoxy)-1,9-dihydro-6H-purin-6-one]
Cn1cnc2c(=O)n(-c3ccc(Cl)cc3)c(Oc3cccc(F)c3F)nc21 [Compound 21, 1-(4-chlorophenyl)-2-(2,3-difluorophenoxy)-9-methyl-1,9-dihydro-6H-purin-6-one]
Cn1cnc2c(=O)n(-c3ccc(F)cc3)c(Oc3ccc(F)cc3Cl)nc21 [Compound 22, 2-(2-chloro-4-fluorophenoxy)-1-(4-fluorophenyl)-9-methyl-1,9-dihydro-6H-purin-6-one]
Cn1cnc2c(=O)n(-c3ccc(Cl)cc3)c(Oc3ccc(F)cc3Cl)nc21 [Compound 23, 2-(2-chloro-4-fluorophenoxy)-1-(4-chlorophenyl)-9-methyl-1,9-dihydro-6H-purin-6-one]
Cn1cnc2c(=O)n(-c3ccc(F)cc3)c(Oc3c(F)ccc(F)c3F)nc21 [Compound 24, 1-(4-fluorophenyl)-9-methyl-2-(2,3,6-trifluorophenoxy)-1,9-dihydro-6H-purin-6-one]
Cn1cnc2c(=O)n(-c3ccc(Cl)cc3)c(Oc3c(F)ccc(F)c3F)nc21 [Compound 25, 1-(4-chlorophenyl)-9-methyl-2-(2,3,6-trifluorophenoxy)-1,9-dihydro-6H-purin-6-one]
CCn1cnc2c(=O)n(-c3ccc(F)cc3)c(Oc3cc(F)cc(F)c3F)nc21 [Compound 26, 9-ethyl-1-(4-fluorophenyl)-2-(2,3,5-trifluorophenoxy)-1,9-dihydro-6H-purin-6-one]
Cn1cnc2c(=O)n(-c3ccc(Cl)cc3)c(Oc3cc(F)cc(F)c3F)nc21 [Compound 27, 1-(4-chlorophenyl)-9-methyl-2-(2,3,5-trifluorophenoxy)-1,9-dihydro-6H-purin-6-one]
Cn1cnc2c(=O)n(-c3ccc(Cl)cc3)c(Oc3ccc(C#N)c(F)c3F)nc21 [Compound 28, 4-{[1-(4-chlorophenyl)-9-methyl-6-oxo-6,9-dihydro-1H-purin-2-yl]oxy}-2,3-difluorobenzonitrile]
Cn1cnc2c(=O)n(-c3ccc(F)cc3)c(Oc3ccc(C#N)c(F)c3F)nc21 [Compound 29, 2,3-difluoro-4-{[1-(4-fluorophenyl)-9-methyl-6-oxo-6,9-dihydro-1H-purin-2-yl]oxy}benzonitrile]
Cn1cnc2c(=O)n(-c3ccc(Cl)cc3)c(Oc3cc(F)c(F)c(F)c3)nc21 [Compound 30, 1-(4-chlorophenyl)-9-methyl-2-(3,4,5-trifluorophenoxy)-1,9-dihydro-6H-purin-6-one]
O=c1c2ncccc2nc(Oc2ccc(F)cc2F)n1-c1ccc(F)cc1 [Compound 31, 2-(2,4-difluorophenoxy)-3-(4-fluorophenyl)pyrido[3,2-d]pyrimidin-4(3H)-one]
O=c1c2ncccc2nc(Oc2ccc(F)c(F)c2F)n1-c1ccc(F)cc1 [Compound 32, 3-(4-fluorophenyl)-2-(2,3,4-trifluorophenoxy)pyrido[3,2-d]pyrimidin-4(3H)-one]
O=c1c2ncsc2nc(Oc2ccc(F)c(F)c2F)n1-c1ccc(F)cc1 [Compound 33, 6-(4-fluorophenyl)-5-(2,3,4-trifluorophenoxy)[1,3]thiazolo[5,4-d]pyrimidin-7(6H)-one]
O=c1c2ncsc2nc(Oc2cccc(F)c2F)n1-c1ccc(F)cc1 [Compound 34, 5-(2,3-difluorophenoxy)-6-(4-fluorophenyl)[1,3]thiazolo[5,4-d]pyrimidin-7(6H)-one]
O=c1c2ncsc2nc(Oc2cc(F)c(F)cc2F)n1-c1ccc(F)cc1 [Compound 35, 6-(4-fluorophenyl)-5-(2,4,5-trifluorophenoxy)[1,3]thiazolo[5,4-d]pyrimidin-7(6H)-one]
O=c1c2ncsc2nc(Oc2cc(F)cc(F)c2F)n1-c1ccc(F)cc1 [Compound 36, 6-(4-fluorophenyl)-5-(2,3,5-trifluorophenoxy)[1,3]thiazolo[5,4-d]pyrimidin-7(6H)-one]
O=c1c2ncsc2nc(Oc2cc(F)c(F)c(F)c2)n1-c1ccc(F)cc1 [Compound 37, 6-(4-fluorophenyl)-5-(3,4,5-trifluorophenoxy)[1,3]thiazolo[5,4-d]pyrimidin-7(6H)-one]
O=c1c2ncsc2nc(Oc2ccc(Cl)cc2F)n1-c1ccc(F)cc1 [Compound 38, 5-(4-chloro-2-fluorophenoxy)-6-(4-fluorophenyl)[1,3]thiazolo[5,4-d]pyrimidin-7(6H)-one]
Cn1cnc2c(=O)n(-c3ccc(Cl)cc3)c(Oc3cccc(C(F)(F)F)c3F)nc21 [Compound 42, 1-(4-chlorophenyl)-2-[2-fluoro-3-(trifluoromethyl)phenoxy]-9-methyl-1,9-dihydro-6H-purin-6-one]
Cn1cnc2c(=O)n(-c3ccc(F)cc3)c(Oc3cccc(C(F)(F)F)c3F)nc21 [Compound 43, 1-(4-fluorophenyl)-2-[2-fluoro-3-(trifluoromethyl)phenoxy]-9-methyl-1,9-dihydro-6H-purin-6-one]
O=c1c2ncsc2nc(Oc2cc(F)cc(C(F)(F)F)c2)n1-c1ccc(F)cc1 [Compound 44, 6-(4-fluorophenyl)-5-[3-fluoro-5-(trifluoromethyl)phenoxy][1,3]thiazolo[5,4-d]pyrimidin-7(6H)-one]

Same assay, conditions: cells expressing human capsaicin receptor, capsaicin-induced fluorescence response; read-out: IC50 determined as described in Example 6

IC50, ≤ 100 nM:
Cn1cnc2c(=O)n(-c3ccc(Br)cc3)c(Oc3ccc(F)c(F)c3F)nc21 [Compound 1, 1-(4-Bromophenyl)-9-methyl-2-(2,3,4-trifluorophenoxy)-1,9-dihydro-6H-purin-6-one]
Cn1cnc2c(=O)n(-c3ccc(Cl)nc3)c(Oc3cc(F)c(F)c(F)c3)nc21 [Compound 6, 1-(6-Chloropyridin-3-yl)-9-methyl-2-(3,4,5-trifluorophenoxy)-1H-purin-6(9H)-one]
Cn1cnc2c(=O)n(-c3ccc(C#N)nc3)c(Oc3cc(F)c(F)c(F)c3)nc21 [Compound 7, 5-(9-Methyl-6-oxo-2-(3,4,5-trifluorophenoxy)-6H-purin-1(9H)-yl)picolinonitrile]
